# Tested on: Human peripheral blood mononuclear cells
# Test: Cell proliferation tracking by dye dilution, flow cytometry (Biological Application Example 1)
# Type: cell-based
# Conditions: 1 μM staining; initial 24 hours after staining
# Procedure: Human peripheral blood mononuclear cells were isolated from whole blood using a Ficoll density gradient, then washed and resuspended in phosphate buffered saline (DPBS) at a concentration of 10^6/mL. The general procedure used is as follows: • 1. Dilute 8 mL of whole blood into 8 mL of 1×PBS and mix well. • 2. Add 6 mL Ficoll-Paque Plus to a 15-mL centrifuge tube, then layer 8 mL diluted whole blood on top. • 3. Centrifuge 30 min at 400 g, then carefully remove the lymphocyte layer. • 4. Resuspend cells in 25 mL DPBS buffer in a 50-mL conical tube. • 5. Spin tube for 5 min at 200 g, pour off supernatant and resuspend in 25 mL DPBS. • 6. Repeat wash step and resuspend in 300 μL of Isolation Buffer. • 7. Count cells on cellometer; adjust cell concentration to 10^6 cells/mL
# Compound 2, Compound 6, Compound 7, and Carboxyfluorescein Diacetate Succinimidyl ester (CFSE) were each dissolved in anhydrous dimethylsulfoxide to a concentration of 1 mM. Aliquots, 4-mL, of cells were then stained with 4 μL of Compound 2, Compound 6, Compound 7, or CFSE for final staining concentrations of 1 μM. Cells were incubated with agitation at room temperature for 20 minutes. Then 2 mL of heat-inactivated Fetal Bovine Serum (FBS) were added, followed by 5 more minutes of incubation. Cells were washed twice with DPBS+10% FBS and resuspended in 4 mL of OpTmizer T-Cell Expansion Buffer (GIBCO) containing 2 mM L-glutamine, and 100,000 units penicillin and 100 mg streptomycin per liter. Aliquots (1-mL) of cells stained with Compound 2, Compound 6, Compound 7, or CFSE, and a 1-ml aliquot of unstained cells were then dispensed into a 24-well polystyrene plate and incubated at 37° C. and 5% CO2 for 24 hours. One of the following four stimulus conditions were then applied individually to the cells: i) 200 ng anti-CD3 (2 μL), incubated on ice for 30 min, then transferred to culture plate and add 100 ng iL-2 per mL of culture media, ii) 5 μg/mL Concanavalin A (5 μL of a 1 mg/mL solution), iii) 75 μL CD3/CD28 T cell expander beads, or iv) no stimulus. The cells were then incubated for 72 additional hours at 37° C. and 5% CO2. Aliquots (500-μL) of cells from each treatment were analyzed immediately following staining, and at 24 hours and six days after staining.
# Aliquots (500 μL) of cells were washed and resuspended in PBS, stained with mouse anti-human CD3 or CD8 R-phycoerythrin primary antibody conjugates for 15 minutes, then washed and stained with SYTOX® Red Dead Cell Stain for 5 minutes. Cells were then run through the Becton Dickinson (BD) LSRII Flow Cytometer. Fluorescence was collected using three lasers: the 405 nm excitation laser with 450/50 bandpass emission filter, the 488 nm excitation laser with 585/42 bandpass emission filter, and the 633 nm excitation laser with 660/20 bandpass emission filter. A gating strategy was employed to limit analysis to only the cells of interest. Cells were gated first on SYTOX® Red Dead Cell Stain negative (live) cells, then on R-phycoerythrin positive cells (CD3+ or CD8+ positive). […] CountBright™ Absolute Counting Beads were evaluated in each fluorescence histogram prior to each run to account for day-to-day instrument variations.
row,Compound,loss of fluorescence over 24 hours
1,CC(=O)Oc1cc2oc(=O)c(C(=O)ON3C(=O)CCC3=O)cc2cc1Cl [Compound 2],very little loss of fluorescence
2,CC(=O)Oc1cc2oc(=O)c(C(=O)N3CCC(C(=O)ON4C(=O)CCC4=O)CC3)cc2cc1Cl [Compound 6],very little loss of fluorescence
3,CC(=O)OCOc1cc2oc(=O)c(C(=O)N3CCC(C(=O)ON4C(=O)CCC4=O)CC3)cc2cc1Cl [Compound 7],very little loss of fluorescence
4,"Carboxyfluorescein Diacetate Succinimidyl ester [CFSE, reference compound]",moderate fluorescence loss

# Same assay, conditions: 1 μM staining; six days after staining; stimulated
row,Compound,fluorescence histogram from stimulated cells
1,CC(=O)Oc1cc2oc(=O)c(C(=O)ON3C(=O)CCC3=O)cc2cc1Cl [Compound 2],distinct peaks corresponding to each generation of cells
2,CC(=O)Oc1cc2oc(=O)c(C(=O)N3CCC(C(=O)ON4C(=O)CCC4=O)CC3)cc2cc1Cl [Compound 6],distinct peaks corresponding to each generation of cells
3,CC(=O)OCOc1cc2oc(=O)c(C(=O)N3CCC(C(=O)ON4C(=O)CCC4=O)CC3)cc2cc1Cl [Compound 7],distinct peaks corresponding to each generation of cells
4,"Carboxyfluorescein Diacetate Succinimidyl ester [CFSE, reference compound]",distinct peaks corresponding to each generation of cells

# Same assay, conditions: 1 μM staining; six days after staining; unstimulated
row,Compound,fluorescence intensity and coefficient of variation from unstimulated cells
1,CC(=O)Oc1cc2oc(=O)c(C(=O)ON3C(=O)CCC3=O)cc2cc1Cl [Compound 2],little change from initial staining
2,CC(=O)Oc1cc2oc(=O)c(C(=O)N3CCC(C(=O)ON4C(=O)CCC4=O)CC3)cc2cc1Cl [Compound 6],little change from initial staining
3,CC(=O)OCOc1cc2oc(=O)c(C(=O)N3CCC(C(=O)ON4C(=O)CCC4=O)CC3)cc2cc1Cl [Compound 7],little change from initial staining
4,"Carboxyfluorescein Diacetate Succinimidyl ester [CFSE, reference compound]",little change from initial staining

# Source: patent US11175204B1, “7-hydroxycoumarin-based cell-tracking reagents” (LIFE TECHNOLOGIES CORPORATION, priority 2009, dated 2021)
